This assay deals with L1210 leukemia ip in BDF1 mice, survival T/C. The experiment in a line: NCI In Vivo Anticancer Drug Screen. Data for tumor model L1210 Leukemia (intraperitoneal) in B6D2F1 (BDF1) mice. Particulars: endpoint: mean survival time, higher = longer survival. The method in brief:
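Each compound was tested against a transplantable tumor grown in mice. The endpoint was survival, with treated animals benchmarked against vehicle controls as a simple ratio.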

The mark [1] stands for this setting: dose: 50.0 mg/kg/injection, schedule: Q01DX001 (ip), vehicle: carboxymethylcellulose (CMC).
The mark [2] stands for this setting: dose: 100.0 mg/kg/injection, schedule: Q01DX009 (ip), vehicle: saline.
Setting [3] is: dose: 100.0 mg/kg/injection, schedule: Q04DX003 (ip), vehicle: saline.
Setting [4] is: dose: 200.0 mg/kg/injection, schedule: Q01DX009 (ip), vehicle: saline.
The mark [5] stands for this setting: dose: 200.0 mg/kg/injection, schedule: Q04DX003 (ip), vehicle: saline.
Where [6] appears, read: dose: 100.0 mg/kg/injection, schedule: Q04DX003 (ip), vehicle: saline with Tween-80.
The mark [7] stands for this setting: dose: 200.0 mg/kg/injection, schedule: Q01DX009 (ip), vehicle: saline with Tween-80.
Where [8] appears, read: dose: 200.0 mg/kg/injection, schedule: Q04DX003 (ip), vehicle: saline with Tween-80.
Where [9] appears, read: dose: 400.0 mg/kg/injection, schedule: Q04DX003 (ip), vehicle: saline with Tween-80.
Where [10] appears, read: dose: 25.0 mg/kg/injection, schedule: Q01DX009 (ip), vehicle: saline with Tween-80.
The mark [11] stands for this setting: dose: 100.0 mg/kg/injection, schedule: Q01DX001 (ip), vehicle: saline.
The mark [12] stands for this setting: dose: 400.0 mg/kg/injection, schedule: Q01DX009 (ip), vehicle: saline.
[13] abbreviates: dose: 400.0 mg/kg/injection, schedule: Q04DX003 (ip), vehicle: saline.
[14] abbreviates: dose: 50.0 mg/kg/injection, schedule: Q01DX009 (ip), vehicle: saline with Tween-80.
Setting [15] is: dose: 100.0 mg/kg/injection, schedule: Q01DX009 (ip), vehicle: saline with Tween-80.

Values joined by “and” are separate entries in the source; they are usually repeats but may differ in a detail not shown here. Identical values can stand only once. Toxic doses and inconclusive results are not listed.

Regarding `O=NN(CCCl)C(=O)Nc1ccc(C(F)(F)F)cc1`, the T/C (dose: 4.6 mg/kg/injection, schedule: Q01DX Z (ip), vehicle: carboxymethylcellulose (CMC)) is 154 % of control; the T/C (dose: 9.37 mg/kg/injection, schedule: Q01DX Z (ip), vehicle: carboxymethylcellulose (CMC)) was 166 % of control; the T/C (dose: 18.75 mg/kg/injection, schedule: Q01DX Z (ip), vehicle: carboxymethylcellulose (CMC)) was 190 % of control; the T/C (dose: 37.5 mg/kg/injection, schedule: Q01DX Z (ip), vehicle: carboxymethylcellulose (CMC)) was 108 % of control; the T/C under setting [1] was 151 % of control; the T/C (dose: 75.0 mg/kg/injection, schedule: Q01DX001 (ip), vehicle: carboxymethylcellulose (CMC)) is 167 % of control.
Regarding `CCC(C)(CC)NC(C)=O`, the T/C runs as follows: (dose: 100.0 mg/kg/injection, schedule: Q04DX003 (ip), vehicle: Klucel (hydroxypropylcellulose) (HPC)) 99 % of control; (dose: 200.0 mg/kg/injection, schedule: Q04DX003 (ip), vehicle: Klucel (hydroxypropylcellulose) (HPC)) 103 % of control.
As to `N#Cc1cnc2nc(N)nc(N)c2c1`, the T/C is 95 % of control and 105 % of control (dose: 50.0 mg/kg/injection, schedule: Q01DX009 (ip), vehicle: saline); 95 % of control and 91 % of control under setting [2]; 95 % of control under setting [3]; 95 % of control and 98 % of control and 90 % of control under setting [4]; 106 % of control under setting [5].
For `c1ccc(-c2nn3c(-c4ccccc4)nnc3o2)cc1`, the T/C was 90 % of control (dose: 66.0 mg/kg/injection, schedule: Q01DX009 (ip), vehicle: saline with Tween-80); 92 % of control under setting [6]; 95 % of control (dose: 150.0 mg/kg/injection, schedule: Q01DX009 (ip), vehicle: saline with Tween-80); 90 % of control under setting [7]; 93 % of control under setting [8]; 164 % of control (dose: 400.0 mg/kg/injection, schedule: Q01DX009 (ip), vehicle: saline with Tween-80). The T/C under setting [9] was 92 % of control.
For `CCc1ccc(C(=O)O)oc1=O`, the T/C runs as follows: (dose: 75.0 mg/kg/injection, schedule: Q01DX001 (ip), vehicle: saline) 89 % of control; (dose: 150.0 mg/kg/injection, schedule: Q01DX001 (ip), vehicle: saline) 92 % of control.
Regarding `CC1OC(c2ccccc2)OC2COC(c3ccccc3)OC12` (stereo unspecified), the T/C reads like this: under setting [6], 102 % of control; under setting [8], 96 % of control; under setting [9], 96 % of control.
For `NC(=O)c1[nH]cnc1NN=NCCCl`, the T/C (dose: 0.37 mg/kg/injection, schedule: Q01DX009 (ip), vehicle: saline with Tween-80) was 165 % of control; the T/C (dose: 0.75 mg/kg/injection, schedule: Q01DX001 (ip), vehicle: saline with Tween-80) is 106 % of control; the T/C (dose: 0.75 mg/kg/injection, schedule: Q01DX009 (ip), vehicle: saline with Tween-80) is 119 % of control; the T/C (dose: 1.5 mg/kg/injection, schedule: Q01DX009 (ip), vehicle: saline with Tween-80) is 122 % of control; the T/C (dose: 3.0 mg/kg/injection, schedule: Q01DX009 (ip), vehicle: saline with Tween-80) is 173 % of control; the T/C (dose: 3.12 mg/kg/injection, schedule: Q01DX009 (ip), vehicle: saline with Tween-80) was 172 % of control. Also, the T/C runs as follows: (dose: 4.0 mg/kg/injection, schedule: Q01DX009 (ip), vehicle: saline with Tween-80) 156 % of control and 189 % of control; (dose: 6.0 mg/kg/injection, schedule: Q01DX009 (ip), vehicle: saline with Tween-80) 164 % of control and 240 % of control; (dose: 6.25 mg/kg/injection, schedule: Q01DX009 (ip), vehicle: saline with Tween-80) 258 % of control; (dose: 9.0 mg/kg/injection, schedule: Q01DX009 (ip), vehicle: saline with Tween-80) 191 % of control and 215 % of control; (dose: 12.5 mg/kg/injection, schedule: Q01DX001 (ip), vehicle: saline with Tween-80) 247 % of control; (dose: 12.5 mg/kg/injection, schedule: Q01DX009 (ip), vehicle: saline with Tween-80) 161 % of control. The T/C is 215 % of control and 229 % of control (dose: 17.0 mg/kg/injection, schedule: Q01DX001 (ip), vehicle: saline with Tween-80); 207 % of control and 285 % of control and 313 % of control (dose: 25.0 mg/kg/injection, schedule: Q01DX001 (ip), vehicle: saline with Tween-80); 91 % of control under setting [10]; 171 % of control and 257 % of control (dose: 37.0 mg/kg/injection, schedule: Q01DX001 (ip), vehicle: saline with Tween-80); 197 % of control (dose: 50.0 mg/kg/injection, schedule: Q01DX001 (ip), vehicle: saline with Tween-80).
With `Nc1cnccc1NCCN1CCN(c2ccccc2)CC1`, the T/C under setting [11] is 98 % of control.
Take `O=C(CC(O)(C(F)(F)F)C(F)(F)F)c1ccccc1Cl`: the T/C reads like this: under setting [6], 97 % of control; under setting [8], 101 % of control; under setting [9], 101 % of control.
Regarding `O=C1OC2C(I)C3CCC2C1C3` (stereo unspecified), the T/C by setting is: under setting [2], 98 % of control; under setting [3], 102 % of control; under setting [4], 102 % of control; under setting [5], 105 % of control; under setting [12], 98 % of control; under setting [13], 98 % of control.
Take `CC(C)(C)CC(C)(C)N=C=S`: the T/C by setting is: under setting [10], 100 % of control; under setting [14], 94 % of control; under setting [15], 96 % of control and 97 % of control.
For the compound `O=[N+]([O-])c1ccc(-c2ncc3cnccn23)cc1`, the T/C is 90 % of control under setting [2]; 100 % of control under setting [3]; 90 % of control under setting [4]; 93 % of control under setting [5]; 91 % of control under setting [12]; 95 % of control under setting [13].
Take `COc1cccc(/C=C/C(=O)C2CCCCC2)c1`: the T/C by setting is: under setting [14], 101 % of control; under setting [15], 97 % of control; under setting [7], 101 % of control.
Take `CC(=O)Nc1cc(CN2CCCCC2)c(O)c2ncccc12`: the T/C (dose: 75.0 mg/kg/injection, schedule: Q01DX001 (ip), vehicle: other) is 120 % of control; the T/C (dose: 150.0 mg/kg/injection, schedule: Q01DX001 (ip), vehicle: other) is 105 % of control; the T/C (dose: 300.0 mg/kg/injection, schedule: Q01DX001 (ip), vehicle: other) was 107 % of control.
On to `COc1cc([N+](=O)[O-])cc(OC)c1OC`, for which the T/C was 95 % of control (dose: 100.0 mg/kg/injection, schedule: Q01DX001 (ip), vehicle: Klucel (hydroxypropylcellulose) (HPC)); 92 % of control (dose: 200.0 mg/kg/injection, schedule: Q01DX001 (ip), vehicle: Klucel (hydroxypropylcellulose) (HPC)); 97 % of control (dose: 400.0 mg/kg/injection, schedule: Q01DX001 (ip), vehicle: Klucel (hydroxypropylcellulose) (HPC)).
In the case of `CC1(OC(=O)c2ccc([N+](=O)[O-])cc2)CC2CC1c1ccccc12` (stereo unspecified), the T/C under setting [1] was 90 % of control; the T/C (dose: 200.0 mg/kg/injection, schedule: Q01DX001 (ip), vehicle: carboxymethylcellulose (CMC)) is 111 % of control; the T/C (dose: 400.0 mg/kg/injection, schedule: Q01DX001 (ip), vehicle: carboxymethylcellulose (CMC)) is 90 % of control.
As for `C=C(C)CC(N)Cc1ccccc1` (stereo unspecified), the T/C (dose: 50.0 mg/kg/injection, schedule: Q04DX002 (ip), vehicle: saline with Tween-80) was 89 % of control; the T/C (dose: 100.0 mg/kg/injection, schedule: Q04DX002 (ip), vehicle: saline with Tween-80) was 95 % of control and 103 % of control.
For `Cc1ccccc1CCC(=O)OCC(=O)c1ccc(-c2ccccc2)cc1`, the T/C was 96 % of control under setting [11]; 88 % of control (dose: 200.0 mg/kg/injection, schedule: Q01DX001 (ip), vehicle: saline); 92 % of control (dose: 400.0 mg/kg/injection, schedule: Q01DX001 (ip), vehicle: saline).
Turning to `CC(=O)[O][Sn]([CH3])([CH3])[CH3]`, the T/C is 93 % of control (dose: 0.18 mg/kg/injection, schedule: Q01DX009 (ip), vehicle: Klucel (hydroxypropylcellulose) (HPC)); 96 % of control (dose: 0.37 mg/kg/injection, schedule: Q01DX009 (ip), vehicle: Klucel (hydroxypropylcellulose) (HPC)); 104 % of control (dose: 0.75 mg/kg/injection, schedule: Q01DX009 (ip), vehicle: Klucel (hydroxypropylcellulose) (HPC)).

The record behind these values is PubChem BioAssay AID248 (DTP/NCI, 2004).
